Measurements reported in publication PMC7780097, “Asn‐linked N–acetylglucosamine of the amylin receptor 2 extracellular domain enhances peptide ligand affinity” (FEBS Open Bio, 2020).

Experiments:
full‐length CTR = details: cited from earlier work
From the text: The calcitonin receptor (CTR) is a class B GPCR for peptide hormone calcitonin that regulates calcium homeostasis. CTR has an ECD with four N‐glycosylation sites: N28, N73, N125, and N130. […] My colleagues and I reported that N‐glycosylation of CTR enhanced salmon calcitonin (sCT) affinity for CTR ECD by sevenfold and that the asp ...

CTR ECD = details: cited from earlier work
From the text: The calcitonin receptor (CTR) is a class B GPCR for peptide hormone calcitonin that regulates calcium homeostasis. CTR has an ECD with four N‐glycosylation sites: N28, N73, N125, and N130. […] Unexpectedly, the crystal structures of Endo H‐treated/Asn‐linked GlcNAc‐containing CTR ECD were almost identical to the structure of glycan‐free CTR ECD with a subtle structural difference. Direct interaction between the Asn‐linked GlcNAc and peptide hormone sCT was not found in the crystal structures ruling out the hypothesis of direct interaction between them. We also examined whether CTR ECD residues near the Asn‐linked GlcNAc of N130 medi ...

AMY = test system: AMY; design: method as in PMID 15692146; details: cited from earlier work
[1] = test system: glycosylated CTR ECD[N130D]; test: FP peptide binding assay, glycosylated CTR ECD[N130D] with or without PNGase F treatment; details: PNGase F treatment vs No PNGase F treatment; Fig. 2A
Procedure: (§1) pHLsec‐based vectors were used to obtain glycosylated CTR ECD from HEK293S GnTI^− cells as a secreted protein. Maltose‐binding protein (MBP) was fused to the CTR ECD to increase initial protein expression and purification.
(§2) MBP‐TEV cleavage site‐CTR ECD WT was expressed from HEK293S GnTI^− cells for 3 days after plasmid transfection with polyethyleneimine (PEI). All protein purification steps were performed at 4 °C, otherwise noted. The expressed protein was purified with immobilized Ni metal affinity chromatography (IMAC). The peak fractions were pooled and incubated with 1 : 5 ratio TEV protease (w/w, TEV protease: protein) for 6 h at 20 °C. The reaction mixture was spin‐concentrated (MWCO 10 kDa) and loaded to size‐exclusion chromatography (SEC). The fractions with expected CTR ECD WT molecular weight were collected, spin‐concentrated, and used for PNGase F reaction and following peptide binding assay. […]
(§3) The procedure of fluorescence polarization (FP) peptide binding assay was previously described [4]. FITC‐sCT(22–32), FITC‐AC413(6–25), and FITC‐AM(37–52)[S45W/Q50W] were used as fluorescence‐labeled peptide probes. […] A PolarStar Omega plate reader (BMG Labtech, Cary, NC, USA) or a SpectraiD5 (Molecular Devices, San Jose, CA, USA) was used to measure FP. Background‐subtracted fluorescence intensity was used to calculate anisotropy.

[2] = biological target: T1, glycosylated CTR ECD[N130D] (Homo sapiens, UniProt P30988, N130D); test: as above; details: heat‐inactivated PNGase F vs No PNGase F; Fig. 2A
T1 sequence (P30988 38-141 N130D): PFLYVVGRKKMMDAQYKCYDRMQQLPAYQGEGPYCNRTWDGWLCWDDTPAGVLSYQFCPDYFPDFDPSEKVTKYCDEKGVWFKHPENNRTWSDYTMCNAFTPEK
Procedure: as §1, §2, §3

[3] = biological target: RAMP2 ECD:CTR ECD complex (Endo H‐treated CTR ECD WT) (Homo sapiens, UniProt O60895+P30988); test: FP peptide binding assay, RAMP2 ECD 100 μM coincubation with Endo H-treated CTR ECD WT (AMY2 ECD); details: Discussion summary of Fig. 4B
Chain of RAMP2 ECD:CTR ECD complex (Endo H‐treated CTR ECD WT) (P30988 38-141): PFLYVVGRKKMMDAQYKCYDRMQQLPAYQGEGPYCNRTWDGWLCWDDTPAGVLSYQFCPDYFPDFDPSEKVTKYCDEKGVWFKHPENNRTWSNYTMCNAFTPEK
Chain of RAMP2 ECD:CTR ECD complex (Endo H‐treated CTR ECD WT) (O60895 55-140): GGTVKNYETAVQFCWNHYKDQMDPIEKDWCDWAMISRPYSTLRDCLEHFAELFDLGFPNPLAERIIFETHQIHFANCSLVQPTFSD
Procedure: The expression and purification procedure of Endo H‐treated CTR ECD WT and N130D was previously reported. […] After TEV protease reaction, N‐glycans of the protein were trimmed with 1 : 10 ratio Endo H (w/w, Endo H : protein) overnight at 4 °C, while dialyzing to 25 mM MOPS (pH 6.5) and 150 mM NaCl. Next day, the pH was increased to pH 7.5 and the protein was purified with IMAC and following SEC. The final peak fractions were dialyzed to storage buffer and stored at −80 °C until use.
The expression and purification of glycan‐free RAMP2 ECD were previously reported except for using RAMP2.55‐140 instead of RAMP2.36‐140 [15]. Briefly, MBP‐Thrombin cleavage site‐hRAMP2.55‐140‐H6 was expressed in the E. coli strain Origami B DE3. The cells were lysed by sonication and spun down by centrifugation. The supernatant was purified with IMAC and following amylose affinity chromatography. Human α‐thrombin was used to cleave out MBP, and the reaction mixture was loaded to IMAC to remove untagged MBP and thrombin. The RAMP2 ECD was further purified with SEC, and the peak fractions were dialyzed to storage buffer and stored at −80 °C until use. RAMP2 ECD without an MBP‐tag was also purified as follows. hRAMP2.55‐140‐H6 was expressed in the E. coli strain Origami B DE3. The bacterial cells were lysed by sonication using Bioruptor® standard (Diagenode Inc., Denville, NJ, USA). […]

CTR = test system: CTR; design: method as in PMID 15692146; details: cited from earlier work
[4] = by the Asn‐linked GlcNAc of CTR N130

Substance: salmon calcitonin [sCT]
- affinity, effect of N‐glycosylation of CTR ECD N130 (full‐length CTR): enhanced
- fold enhancement of affinity by N‐glycosylation (CTR ECD; N‐glycosylation of CTR): sevenfold
- decrease of dissociation rate (CTR ECD; [4]): twofold
- fold affinity enhancement (CTR ECD; [4]): sixfold
- increase of association rate (CTR ECD; [4]): threefold
- agonist activity (AMY): high affinity agonist
- fold decrease in affinity [1]: 1.7 fold
- effect of heat‐inactivated PNGase F on affinity [2]: did not change
- sCT affinity for AMY2 ECD, effect of the Asn‐linked GlcNAc of CTR N130 [3]: increased
- agonist activity (CTR): high affinity agonist
